According to patent publication US12435087B2, “Modulators of DCN-1 and methods of use thereof” (Cellarity, Inc., priority 2023, dated 2025):

Experiments:
[1] = target: DCN1 (DCUND1) protein PONY domain (Homo sapiens (Human), UniProt Q96GG9); assay: Off-rate measurement of reversible covalent molecules (jump dilution TR-FRET with Cy5 probe); conditions: binding mode from off-rate measurement
Description: A TR-FRET assay was performed to classify the compounds as an irreversible covalent binder, a reversible covalent binder or a reversible binder.
An assay to measure the off-rate of reversible covalent molecules was developed. A typical covalent compound is assumed to stay bound to a protein for at least the life of that protein in the cell. In reality, there is a range of how long a covalent compounds remains bound before a reverse reaction takes place. Thus, some covalent bonds can be labeled as reversible as their reverse reaction takes place in a measurable amount of time under physiological conditions. The assay capitalizes on the range of covalent binders by using a high affinity covalent binder as a probe to displace the more reversible binders in an adaptation of the jump dilution method.
In this version of the jump dilution method, the increase in covalent probe binding over time was measured through a TR-FRET reaction between the covalent probe and the biotinylated target protein.
The recombinant form of the DCN1 (DCUND1) protein PONY domain was produced using an E. coli expression system at Viva Biotech (China). The DCN1 protein was biotinylated (EZ sulfo-NHS-LC-biotin; Thermofisher) for labeling with streptavidin terbium (Tb) cryptate in the reaction. This biotinylated protein was used in two forms of the TR-FRET assay as described below.
The off-rate measurement is executed in two steps based on the jump dilution method. […] The greatest dilution allowed within the constraints of the assay was chosen. These factors allow a competitive advantage for the covalent probe to replace the test compound when that compound releases from the target protein. The actual measure is the rate of increased TR-FRET signal as the covalent probe replaces the test compound over time. […] The resulting time dependent curve of the TR-FRET signal is fit to the following equation: Y=Y0+(Plateau−Y0)*(1−exp(−K*x))
K is the rate constant (1/unit of time). The residence time is defined as the inverse of K, the rate constant. The half-life is calculated as ln(2)/K.

[2] = target: DCN2 (DCUND2) protein PONY domain (Homo sapiens (Human), UniProt Q6PH85); assay: DCN2 TR-FRET assay, measurement of Kinact/KI; type: binding
DCN2 (DCUND2) protein PONY domain, sequence (Q6PH85 60-248): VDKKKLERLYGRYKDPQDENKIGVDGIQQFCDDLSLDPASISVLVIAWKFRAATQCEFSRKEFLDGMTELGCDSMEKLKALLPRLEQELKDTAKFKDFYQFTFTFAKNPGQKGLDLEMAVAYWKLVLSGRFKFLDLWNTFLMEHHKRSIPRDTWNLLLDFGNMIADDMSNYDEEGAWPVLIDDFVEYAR
Description: A TR-FRET Assay was performed to evaluate the ability of the compounds to bind DCN-2. The time resolved—Forster's resonance energy transfer (TR-FRET) assay was designed following the protocol established in (Scott et al., Nat Chem Biol. 2017 August; 13(8): 850-857). A recombinant form of the DCN2 (DCUND2) protein PONY domain was produced using an E. coli expression system at Viva Biotech China. The DCN2 protein was biotinylated (EZ sulfo-NHS-LC-biotin; Thermofisher) for labeling with 2.5 nM streptavidin terbium (Tb) cryptate in the reaction. The probe was changed to a non-covalent DCN1 inhibitor labeled with carboxyfluorescein (FAM; Zhou el al., Nat Commun. 2017; 8: 1150). Buffer conditions were modified to enhance protein stability by replacing TritonX with 0.05% Tween20 and increasing NaCl to 200 mM. […] The Kinact and KI measurements were taken to allow for continuous reads over 24 hrs. Plates were read every 5 min up to 1 hr, every 15 min up to 5 hr, and every hour up to 10 hours. Kinact and KI were calculated based on the following equations (Krippendorff B F, et al. Mechanism-based inhibition: deriving K(I) and k(inact) directly from time-dependent IC(50) values. J BiomolScreen. 2009; Mons E et al. A Comprehensive Guide for Assessing Covalent Inhibition in Enzymatic Assays Illustrated with Kinetic Simulations. […] The Kinact and KI values could be estimated from the tight curves of the IC50 values over time. [formula]

DCN1 (DCUND1) protein PONY domain, sequence (Q96GG9 60-248): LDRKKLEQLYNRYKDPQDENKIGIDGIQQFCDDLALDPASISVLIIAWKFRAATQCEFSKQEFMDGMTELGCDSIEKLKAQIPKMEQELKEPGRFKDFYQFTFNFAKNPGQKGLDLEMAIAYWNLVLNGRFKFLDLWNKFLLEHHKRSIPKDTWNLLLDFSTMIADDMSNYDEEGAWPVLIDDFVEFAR

| SMILES | Category [1] | Ki [2] | kinact [2] | kinact/KI [2] |
| --- | --- | --- | --- | --- |
| C=C(CN1CCOCC1)C(=O)Nc1cccc([C@@H]2c3c(C)nn(-c4ccccc4)c3N(CC)C(=O)[C@H]2NC(=O)c2cccc(C(F)(F)F)c2)c1 [Compound I-2, N-((4R,5S)-7-ethyl-3-methyl-4-(3-(2-(morpholinomethyl)acrylamido)phenyl)-6-oxo-1-phenyl-4,5,6,7-tetrahydro-1H-pyrazolo[3,4-b]pyridin-5-yl)-3-(trifluoromethyl)benzamide] | irreversible | > 0.5 nM | 0.00333 to 0.005 s⁻¹ | 3.33e+06 to 8.33e+06 M⁻¹ s⁻¹ |
| C/C=C(\CN1CCN(C2COC2)CC1)C(=O)Nc1cccc([C@@H]2c3cnn(-c4ccccc4)c3N(CC)C(=O)[C@H]2NC(=O)c2csc(C(F)(F)F)n2)c1 [Compound I-234, N-((4R,5S)-7-ethyl-4-(3-((E)-2-((4-(oxetan-3-yl)piperazin-1-yl)methyl)but-2-enamido)phenyl)-6-oxo-1-phenyl-4,5,6,7-tetrahydro-1H-pyrazolo[3,4-b]pyridin-5-yl)-2-(trifluoromethyl)thiazole-4-carboxamide] | irreversible | > 0.5 nM | 0.00167 to 0.00333 s⁻¹ | 167000 to 3.33e+06 M⁻¹ s⁻¹ |
